Measurements published in patent US20230364194A1, “GLP-1R/GCGR Dual Target Agonist Polypeptide Derivative for Treatment of Hepatic Fibrosis Associated with Viral Hepatitis” (Shenzhen Turier Biotech. Co., Ltd., priority 2020, published 2023).
Starred links: 1 amine or outer side, 2 acyl side, 3 side chain; linkers in the order of their positions; H or OH if unused. Non-standard residues stand in square brackets, D forms with d. Groups on a side chain read outwards from the residue. Primed or numbered codes have the meaning given here. No end group written: not given here. *: point of attachment. C18 diacid = O=C(O)CCCCCCCCCCCCCCCCC(=O)*; C16 diacid = O=C(O)CCCCCCCCCCCCCCC(=O)*; γGlu = O=C(O)[C@H](CCC(=O)[*:2])N[*:1]; Stearoyl = CCCCCCCCCCCCCCCCCC(=O)*; Palmitoyl = CCCCCCCCCCCCCCCC(=O)*; PEG2′ = not defined here; Aib = CC(C)(N)C(=O)O

Test system: Hepatic stellate cell strain LX-2
Test: In vitro effect on expression of LX-2 cell activation marker α-SMA (Western Blot, β-actin reference)
Assay type: cell-based
Conditions: LX-2 cells, 10.0 uM, 48 hours, negative control = 100%
Description: Hepatic stellate cell strain LX-2 (from China Center for Type Culture Collection, Shanghai) was selected to study and observe the effects of polypeptide compounds 1-25 on the expression level of LX-2 cell activation marker α-smooth muscle actin (α-SMA). The control group was given the same volume of Dulbecco’s modified Eagle medium (DMEM) (from Gibco, United States), and β-actin (from TransGen Biotech) as the endogenous reference, wherein, α-SMA is a symbolic feature that distinguishes […] from myofibroblasts.
Hepatic stellate cell LX-2 was laid on 35 mm cell culture plate, cultured with DMEM (high glucose)+10% FBS+1% double-antibody culture medium (Thermo Fisher), placed overnight when the cells grew to 70% convergence at 37° C. under the condition of 5% CO2 without serum, and treated with the above GLP-1R/GCGR dual target agonist polypeptide derivatives (namely, polypeptide compounds 1-25) (dissolved in PBS) for 48 hours from the next morning to extract cell protein, and then Western Blot was performed with β-actin as endogenous reference to analyze the expression levels of α-SMA and β-actin by gray-scale analysis using Image J 1.50i. PBS with the same volume as that in experimental group was added in negative control.
The above polypeptide compounds 1-25 with a concentration of 10.0 µM were added, showing that they could reduce the expression of α-SMA at the concentration of 10.0 µM; and the negative control had no effect on the expression of α-SMA (referring to Table 2).
The integrated gray scale of α-SMA/β-actin in the negative control group was considered to be 100% to analyze the in vitro inhibitory activity on hepatic fibrosis by tested polypeptides.

Going from “His-(D-Ser)-Gln-Gly-Thr-Phe-Thr-Ser-Asp-Tyr-Ser-Lys-Tyr-Leu-Asp-Glu-Lys-Ala-Ala-Lys(PEG2-PEG2-γGlu- CO(CH2)14C3)-Glu-Phe-Ile-Glu-Trp-Leu-Leu-Arg-Gly-Gly- Gly-Pro-Ser-Ser-Gly-Ala-Pro-Pro-Pro-Ser-NH2 (H[dS]QGTFTSDYSKYLDEKAAK([PEG2′-PEG2′-γGlu-Palmitoyl])EFIEWLLRGGGPSSGAPPPS-NH2) [Compound 10]” to “His-(D-Ser)-Gln-Gly-Thr-Phe-Thr-Ser-Asp-Tyr-Ser-Lys-Tyr-Leu-Asp-Lys(PEG2-PEG2-γGlu-CO(CH2)14CH3)-Arg-Arg-Ala- Gln-Asp-Phe-Val-Gln-Trp-Leu-Met-Asn-Thr-Gly-Gly-Pro-Ser-Ser-Gly-Ala-Pro-Pro-Pro-Ser-NH2 (H[dS]QGTFTSDYSKYLDK([PEG2′-PEG2′-γGlu-Palmitoyl])RRAQDFVQWLMNTGGPSSGAPPPS-NH2) [Compound 1]”, the “Relative expression of α-SMA (α-SMA/β-actin, %)” value rises from 46.35% to 57.59%.

Going from “His-(D-Ser)-Gln-Gly-Thr-Phe-Thr-Ser-Asp-Tyr-Ser-Lys-Tyr-Leu-Asp-Lys-Lys(PEG2-PEG2-γGlu-CO(CH2)14CH3)-Arg-Ala- Gln-Asp-Phe-Val-Gln-Trp-Leu-Met-Asn-Thr-Gly-Gly-Pro-Ser-Ser-Gly-Ala-Pro-Pro-Pro-Ser-NH2 (H[dS]QGTFTSDYSKYLDKK([PEG2′-PEG2′-γGlu-Palmitoyl])RAQDFVQWLMNTGGPSSGAPPPS-NH2) [Compound 16]” to “His-Aib-Gln-Gly-Thr-Phe-Thr-Ser-Asp-Lys(PEG2-PEG2-yGlu- CO(CH2)14CH3)-Ser-Lys-Tyr-Leu-Asp-Glu-Arg-Arg-Ala-Gln- Asp-Phe-Val-Gln-Trp-Leu-Leu-Asp-Gly-Gly-Gly-Pro-Ser-Ser-Gly-Ala-Pro-Pro-Pro-Ser-NH2 (H[Aib]QGTFTSDK([PEG2′-PEG2′-γGlu-Palmitoyl])SKYLDERRAQDFVQWLLDGGGPSSGAPPPS-NH2) [Compound 6]”, the “Relative expression of α-SMA (α-SMA/β-actin, %)” value rises from 40.86% to 42.34%.

Going from “His-(D-Ser)-Gln-Gly-Thr-Phe-Thr-Ser-Asp-Tyr-Ser-Lys-Tyr-Leu-Asp-Glu-Lys(PEG2-PEG2-γGlu-CO(CH2)16CO2H)-Ala- Ala-His-Asp-Phe-Val-Glu-Trp-Leu-Leu-Asn-Gly-Gly-Gly-Pro-Ser-Ser-Gly-Ala-Pro-Pro-Pro-Ser-NH2 (H[dS]QGTFTSDYSKYLDEK([PEG2′-PEG2′-γGlu-C18 diacid])AAHDFVEWLLNGGGPSSGAPPPS-NH2) [Compound 9]” to “His-Aib-Gln-Gly-Thr-Phe-Thr-Ser-Asp-Lys(PEG2-PEG2-γGlu- CO(CH2)14CO2H)-Ser-Lys-Tyr-Leu-Asp-Glu-Arg-Arg-Ala- Gln-Asp-Phe-Val-Gln-Trp-Leu-Leu-Asp-Gly-Gly-Gly-Pro-Ser-Ser-Gly-Ala-Pro-Pro-Pro-Ser-NH2 (H[Aib]QGTFTSDK([PEG2′-PEG2′-γGlu-C16 diacid])SKYLDERRAQDFVQWLLDGGGPSSGAPPPS-NH2) [Compound 3]”, the “Relative expression of α-SMA (α-SMA/β-actin, %)” value rises from 40.89% to 45.28%.

First: His-Aib-Gln-Gly-Thr-Phe-Thr-Ser-Asp-Lys(PEG2-PEG2-yGlu- CO(CH2)16CH3)-Ser-Lys-Tyr-Leu-Asp-Glu-Arg-Arg-Ala-Gln- Asp-Phe-Val-Gln-Trp-Leu-Leu-Asp-Gly-Gly-Pro-Ser-Ser-Gly-Ala-Pro-Pro-Pro-Ser-NH2 (H[Aib]QGTFTSDK([PEG2′-PEG2′-γGlu-Stearoyl])SKYLDERRAQDFVQWLLDGGPSSGAPPPS-NH2) [Compound 4]
Second: His-(D-Ser)-Gln-Gly-Thr-Phe-Thr-Ser-Asp-Tyr-Ser-Lys-Tyr-Leu-Asp-Glu-Lys-Ala-Ala-Lys(PEG2-PEG2-γGlu-CO(CH2)14CO2H)-Glu-Phe-Ile-Glu-Trp-Leu-Leu-Asn-Gly- Gly-Gly-Pro-Ser-Ser-Gly-Ala-Pro-Pro-Pro-Ser-NH2 (H[dS]QGTFTSDYSKYLDEKAAK([PEG2′-PEG2′-γGlu-C16 diacid])EFIEWLLNGGGPSSGAPPPS-NH2) [Compound 13]
The “Relative expression of α-SMA (α-SMA/β-actin, %)” value of the first is lower: 40.19% for the first, 40.46% for the second.

First: His-(D-Ser)-Gln-Gly-Thr-Phe-Thr-Ser-Asp-Tyr-Ser-Lys-Tyr-Leu-Asp-Lys(PEG2-PEG2-CO(CH2)16CO2H)-Arg-Arg-Ala- Gln-Asp-Phe-Val-Gln-Trp-Leu-Met-Asn-Thr-Gly-Gly-Pro-Ser-Ser-Gly-Ala-Pro-Pro-Pro-Ser-NH2 (H[dS]QGTFTSDYSKYLDK([PEG2′-PEG2′-C18 diacid])RRAQDFVQWLMNTGGPSSGAPPPS-NH2) [Compound 18]
Second: His-(D-Ser)-Gln-Gly-Thr-Phe-Thr-Ser-Asp-Tyr-Ser-Lys-Tyr-Leu-Asp-Glu-Lys-Ala-Ala-Lys(PEG2-PEG2-γGlu- CO(CH2)16CH3)-Glu-Phe-Ile-Glu-Trp-Leu-Leu-Asn-Gly-Gly- Gly-Pro-Ser-Ser-Gly-Ala-Pro-Pro-Pro-Ser-NH2 (H[dS]QGTFTSDYSKYLDEKAAK([PEG2′-PEG2′-γGlu-Stearoyl])EFIEWLLNGGGPSSGAPPPS-NH2) [Compound 14]
The “Relative expression of α-SMA (α-SMA/β-actin, %)” value of the first is lower: 45.95% for the first, 47.85% for the second.

First: His-(D-Ser)-Gln-Gly-Thr-Phe-Thr-Ser-Asp-Tyr-Ser-Lys-Tyr-Leu-Asp-Glu-Lys-Ala-Ala-Lys(PEG2-PEG2-γGlu- CO(CH2)16CO2H)-Glu-Phe-Ile-Glu-Trp-Leu-Leu-Arg-Thr-Gly- Gly-Pro-Ser-Ser-Gly-Ala-Pro-Pro-Pro-Ser-NH2 (H[dS]QGTFTSDYSKYLDEKAAK([PEG2′-PEG2′-γGlu-C18 diacid])EFIEWLLRTGGPSSGAPPPS-NH2) [Compound 8]
Second: His-(D-Ser)-Gln-Gly-Thr-Phe-Thr-Ser-Asp-Tyr-Ser-Lys-Tyr-Leu-Asp-Lys-Lys(PEG2-PEG2-γGlu-CO(CH2)16CO2H)-Ala- Ala-His-Asp-Phe-Val-Glu-Trp-Leu-Leu-Arg-Thr-Gly-Gly-Pro-Ser-Ser-Gly-Ala-Pro-Pro-Pro-Ser-NH2 [Compound 7]
The “Relative expression of α-SMA (α-SMA/β-actin, %)” value of the first is lower: 39.92% for the first, 46.53% for the second.

Going from “His-(D-Ser)-Gln-Gly-Thr-Phe-Thr-Ser-Asp-Tyr-Ser-Lys-Tyr-Leu-Asp-Lys(PEG2-PEG2-yGlu-CO(CH2)16CO2H)-Arg-Arg- Ala-Gln-Asp-Phe-Val-Gln-Trp-Leu-Nle-Asn-Thr-Gly-Gly-Pro-Ser -Ser-Gly-Ala-Pro-Pro-Pro-Ser-NH2 (HXQGTFTSDYSKYLDKRRAQDFVQWLXNTGGPSSGAPPPS; D-Ser; Nle; PEG2-PEG2-γGlu-C18 diacid lipidation; C-terminal amide; (2)..(2) Xaa=D-Ser; (16)..(16) A side chain of Lys is linked to -PEG2-PEG2-AGlu-CO(CH2)16CO2H; (27)..(27) Xaa=Nle) [Compound 21]” to “His-(D-Ser)-Gln-Gly-Thr-Phe-Thr-Ser-Asp-Tyr-Ser-Lys-Tyr-Leu-Asp-Lys(PEG2-PEG2-γGlu-CO(CH2)16CO2H)-Arg-Arg- Ala-Gln-Asp-Phe-Val-Gln-Trp-Leu-Met-Asn-Thr-Gly-Gly-Pro-Ser-Ser-Gly-Ala-Pro-Pro-Pro-Ser-NH2 (H[dS]QGTFTSDYSKYLDK([PEG2′-PEG2′-γGlu-C18 diacid])RRAQDFVQWLMNTGGPSSGAPPPS-NH2) [Compound 17]”, the “Relative expression of α-SMA (α-SMA/β-actin, %)” value falls from 43.39% to 38.78%.

Going from “His-(D-Ser)-Gln-Gly-Thr-Phe-Thr-Ser-Asp-Tyr-Ser-Lys-Tyr-Leu-Asp-Glu-Lys-Ala-Ala-Lys(PEG2-PEG2-yGlu- CO(CH2)16CO2H)-Glu-Phe-Ile-Glu-Trp-Leu-Leu-Asn-Gly- Gly-Gly-Pro-Ser-Ser-Gly-Ala-Pro-Pro-Pro-Ser-NH2 (H[dS]QGTFTSDYSKYLDEKAAK([PEG2′-PEG2′-γGlu-C18 diacid])EFIEWLLNGGGPSSGAPPPS-NH2) [Compound 12]” to “His-(D-Ser)-Gln-Gly-Thr-Phe-Thr-Ser-Asp-Tyr-Ser-Lys-Tyr-Leu-Asp-Lys(PEG2-PEG2-γGlu-CO(CH2)16CH3)-Arg-Arg-Ala- Gln-Asp-Phe-Val-Gln-Trp-Leu-Met-Asn-Thr-Gly-Gly-Pro-Ser-Ser-Gly-Ala-Pro-Pro-Pro-Ser-NH2 (H[dS]QGTFTSDYSKYLDK([PEG2′-PEG2′-γGlu-Stearoyl])RRAQDFVQWLMNTGGPSSGAPPPS-NH2) [Compound 19]”, the “Relative expression of α-SMA (α-SMA/β-actin, %)” value rises from 41.99% to 44.78%.

Compared with “His-(D-Ser)-Gln-Gly-Thr-Phe-Thr-Ser-Asp-Tyr-Ser-Lys-Tyr-Leu-Asp-Lys(PEG2-PEG2-yGlu-CO(CH2)16CO2H)-Arg-Arg- Ala-Gln-Asp-Phe-Val-Gln-Trp-Leu-Leu-Asn-Thr-Gly-Gly-Pro-Ser -Ser-Gly-Ala-Pro-Pro-Pro-Ser-NH2 (H[dS]QGTFTSDYSKYLDK([PEG2′-PEG2′-γGlu-C18 diacid])RRAQDFVQWLLNTGGPSSGAPPPS-NH2) [Compound 22]”, “His-(D-Ser)-Gln-Gly-Thr-Phe-Thr-Ser-Asp-Tyr-Ser-Lys-Tyr-Leu-Asp-Lys(PEG2-PEG2-CO(CH2)16CO2H)-Arg-Arg-Ala- Gln-Asp-Phe-Val-Gln-Trp-Leu-Nle-Asn-Thr-Gly-Gly-Pro-Ser-Ser-Gly-Ala-Pro-Pro-Pro-Ser-NH2 (HXQGTFTSDYSKYLDKRRAQDFVQWLXNTGGPSSGAPPPS; D-Ser; Nle; PEG2-PEG2-C18 diacid lipidation; C-terminal amide; (2)..(2) Xaa=D-Ser; (16)..(16) A side chain of Lys is linked to -PEG2-PEG2-CO(CH2)16CO2H; (27)..(27) Xaa=Nle) [Compound 24]” is higher in “Relative expression of α-SMA (α-SMA/β-actin, %)” value: 48.76% for the first, 52.65% for the second.
